Measured values taken from PubChem BioAssay (NCI).
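Step 1: Grow cells in 96-well plates. Step 2: Expose to compound for 48 hours at 5 concentrations. Step 3: Interpolate endpoints linearly; if unreached, use highest concentration. At the TGI there is no net growth.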

Columns and labels:
Assay in all cases: NCI-60 cell line screen, 48 h
[1] = test system: HCT-15 colon
[2] = test system: U251 CNS
[3] = test system: HL-60(TB) leukemia
[4] = test system: SN12C renal
[5] = test system: SW-620 colon
[6] = test system: EKVX NSCLC
[7] = test system: HCC-2998 colon
[8] = test system: MALME-3M melanoma
[9] = test system: NCI/ADR-RES ovarian
[10] = test system: NCI-H460 lung

NCCN1CCCCCc2ccccc21
TGI [1]: > 10 µM | TGI [2]: > 10 µM | TGI [3]: > 10 µM | TGI [4]: > 10 µM | TGI [5]: > 10 µM | TGI [6]: > 10 µM | TGI [7]: > 10 µM | TGI [8]: > 10 µM | TGI [9]: > 10 µM | TGI [10]: > 10 µM

COc1ccc2nc(NC(=O)/C(C#N)=C/c3ccccc3)sc2c1
TGI [1]: > 100 µM | TGI [2]: > 100 µM | TGI [3]: 36.7 µM | TGI [4]: > 100 µM | TGI [5]: > 100 µM | TGI [6]: > 100 µM | TGI [7]: > 100 µM | TGI [8]: > 100 µM | TGI [9]: > 69.6 µM | TGI [10]: > 100 µM

CC(C)NC(=O)OCc1c(COC(=O)NC(C)C)n(C)c2c1ccc1sccc12
TGI [1]: > 52.3 µM | TGI [2]: > 60.8 µM | TGI [3]: > 100 µM | TGI [4]: 76.2 µM | TGI [5]: > 100 µM | TGI [6]: 34.1 µM | TGI [7]: 30.3 µM | TGI [8]: 13.6 µM | TGI [9]: > 55.7 µM | TGI [10]: 27.2 µM

c1ccc(C2=NC3OC2c2ccccc23)cc1 (configuration not stated)
TGI [1]: > 10 µM | TGI [2]: > 10 µM | TGI [3]: > 10 µM | TGI [4]: > 10 µM | TGI [5]: > 10 µM | TGI [6]: > 10 µM | TGI [7]: > 10 µM | TGI [8]: > 10 µM | TGI [9]: > 10 µM | TGI [10]: > 10 µM

[N-]=[N+]=CC(=O)C1CCCN1C(=O)c1ccccc1 (configuration not stated)
TGI [1]: > 10 µM | TGI [2]: > 10 µM | TGI [3]: > 10 µM | TGI [4]: > 10 µM | TGI [5]: > 10 µM | TGI [6]: > 10 µM | TGI [7]: > 10 µM | TGI [8]: > 10 µM | TGI [9]: > 10 µM | TGI [10]: > 10 µM

Cc1c(C)n(-c2ccccc2)c2nc(S(C)=O)nc(S(C)=O)c12 (configuration not stated)
TGI [1]: 17.8 µM | TGI [2]: 21.1 µM | TGI [3]: 3.39 µM | TGI [4]: 24.6 µM | TGI [5]: 3.86 µM | TGI [6]: 22.8 µM | TGI [7]: 30.3 µM | TGI [8]: 4.09 µM | TGI [9]: 59.2 µM | TGI [10]: 43.4 µM

Cc1ccc2c(c1C)C(=O)C1(Cc3cc4c(cc3C1=O)CCC4)C2 (configuration not stated)
TGI [1]: > 100 µM | TGI [2]: > 100 µM | TGI [3]: > 100 µM | TGI [4]: > 100 µM | TGI [5]: > 100 µM | TGI [6]: > 100 µM | TGI [7]: > 100 µM | TGI [8]: > 100 µM | TGI [9]: > 100 µM | TGI [10]: > 100 µM

CC1(C)CC(=O)C2=C(C1)C(c1ccccc1Cl)C1C(=O)CC(C)(C)CC1(O)O2 (configuration not stated)
TGI [1]: > 100 µM | TGI [2]: > 100 µM | TGI [3]: > 43.7 µM | TGI [4]: > 100 µM | TGI [5]: > 100 µM | TGI [6]: > 100 µM | TGI [7]: > 100 µM | TGI [8]: > 100 µM | TGI [9]: > 100 µM | TGI [10]: > 100 µM

CN(C)CCN(c1ccccn1)c1ccccn1
TGI [1]: > 100 µM | TGI [2]: > 100 µM | TGI [3]: > 100 µM | TGI [4]: > 100 µM | TGI [5]: > 100 µM | TGI [6]: > 100 µM | TGI [7]: > 100 µM | TGI [8]: > 100 µM | TGI [9]: > 100 µM | TGI [10]: > 100 µM

CC(C)C(Br)CCC1=CCC(Br)(Br)C1 (configuration not stated)
TGI [2]: 28.8 µM | TGI [3]: > 100 µM | TGI [4]: 15.2 µM | TGI [5]: 12.2 µM | TGI [6]: 32.5 µM | TGI [7]: 28.1 µM | TGI [8]: 27.9 µM | TGI [9]: 62.1 µM | TGI [10]: 31.7 µM

COC(=O)CNC(=O)C(CSC(=O)OCC1c2ccccc2-c2ccccc21)NC(=O)CCC(NC(=O)OCC1c2ccccc2-c2ccccc21)C(=O)OC (configuration not stated)
TGI [1]: > 100 µM | TGI [3]: 46.8 µM | TGI [4]: > 100 µM | TGI [5]: > 100 µM | TGI [6]: > 100 µM | TGI [7]: 40.7 µM | TGI [8]: 76.8 µM | TGI [9]: > 100 µM | TGI [10]: 59.2 µM

CC(=O)O[C@@H](c1nccn1Cc1ccccc1)[C@H]1OC(C)(C)O[C@@H]1[C@H]1COC(C)(C)O1
TGI [1]: > 100 µM | TGI [2]: > 100 µM | TGI [3]: > 100 µM | TGI [4]: > 100 µM | TGI [5]: > 100 µM | TGI [6]: > 100 µM | TGI [7]: > 100 µM | TGI [8]: > 100 µM | TGI [9]: > 100 µM | TGI [10]: > 100 µM

O=c1c2c3c(sc2[nH]c(=S)n1-c1ccccc1)CCCc1ccc([N+](=O)[O-])cc1-3
TGI [1]: 72.7 µM | TGI [2]: > 100 µM | TGI [3]: 50.8 µM | TGI [4]: > 100 µM | TGI [5]: 25.4 µM | TGI [6]: > 100 µM | TGI [7]: 77.3 µM | TGI [8]: > 100 µM | TGI [9]: 74 µM | TGI [10]: > 100 µM

O=C1C=CC2(O[C@H](c3ccccc3)[C@@H](c3ccccc3)O2)[C@H](Sc2ccccc2O)C1
TGI [1]: 0.507 µM | TGI [2]: 1.78 µM | TGI [3]: 2.82 µM | TGI [4]: 0.353 µM | TGI [5]: > 100 µM | TGI [6]: 3.31 µM | TGI [7]: 1.63 µM | TGI [8]: 0.907 µM | TGI [9]: 10 µM | TGI [10]: 8.95 µM

CCOC(=O)CSc1nc(N)c2c(-c3ccccc3)c3c(nc2n1)CCCC3
TGI [1]: > 100 µM | TGI [2]: > 100 µM | TGI [3]: > 100 µM | TGI [4]: > 100 µM | TGI [5]: > 100 µM | TGI [6]: > 100 µM | TGI [7]: > 100 µM | TGI [8]: > 100 µM | TGI [9]: > 100 µM | TGI [10]: > 100 µM

Cc1ccc(-c2cc(-c3ccco3)c(C#N)c(=S)[nH]2)cc1
TGI [1]: > 100 µM | TGI [2]: 62.9 µM | TGI [3]: > 100 µM | TGI [4]: > 100 µM | TGI [5]: > 100 µM | TGI [6]: > 100 µM | TGI [7]: > 100 µM | TGI [8]: > 100 µM | TGI [9]: > 100 µM | TGI [10]: > 100 µM

Nc1ncnc2c1nnn2C1C=CC(CP(=O)(O)O)C1 (configuration not stated)
TGI [1]: > 100 µM | TGI [2]: > 100 µM | TGI [3]: > 100 µM | TGI [4]: > 100 µM | TGI [5]: > 100 µM | TGI [6]: > 100 µM | TGI [7]: > 100 µM | TGI [8]: > 100 µM | TGI [9]: > 100 µM | TGI [10]: > 100 µM

S=C(Cc1ccc2c(c1)Sc1ccccc1O2)N1CCOCC1
TGI [1]: > 100 µM | TGI [2]: > 100 µM | TGI [3]: > 100 µM | TGI [4]: > 100 µM | TGI [5]: > 100 µM | TGI [6]: > 100 µM | TGI [7]: > 100 µM | TGI [8]: 90.2 µM | TGI [9]: > 100 µM | TGI [10]: > 100 µM

Clc1cccc(-c2sc(-c3cccs3)cc2Cc2cccs2)c1
TGI [1]: > 10 µM | TGI [3]: > 10 µM | TGI [4]: > 10 µM | TGI [5]: > 10 µM | TGI [6]: > 10 µM | TGI [7]: > 10 µM | TGI [8]: > 10 µM | TGI [9]: > 10 µM | TGI [10]: > 10 µM

O=C(O)c1nc2ccc(C(F)(F)F)cc2[nH]c1=O
TGI [1]: > 100 µM | TGI [2]: > 100 µM | TGI [3]: > 100 µM | TGI [4]: > 100 µM | TGI [5]: > 100 µM | TGI [6]: > 100 µM | TGI [7]: > 100 µM | TGI [8]: > 100 µM | TGI [9]: > 100 µM | TGI [10]: > 100 µM

CN(C)CCNC(=O)c1cccc2c1Nc1ccccc1S2
TGI [1]: 31.4 µM | TGI [2]: 26.9 µM | TGI [3]: 19.2 µM | TGI [4]: 26.1 µM | TGI [5]: 30.8 µM | TGI [6]: 18.7 µM | TGI [7]: 27.2 µM | TGI [8]: 29.2 µM | TGI [9]: 32.6 µM | TGI [10]: 25.7 µM
